PubChem BioAssay AID248 (DTP/NCI, 2004)
Inconclusive results and toxic doses are left out. Cut-off read from the data, not from the text of the source: active = T/C of 150% or more; inactive = T/C below 125%.

Tested on: L1210 leukemia ip in BDF1 mice, survival T/C
Test: NCI In Vivo Anticancer Drug Screen. Data for tumor model L1210 Leukemia (intraperitoneal) in B6D2F1 (BDF1) mice
Details: endpoint: mean survival time, higher = longer survival
Method in brief: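 Each compound was tested against a transplantable tumor grown in mice. The endpoint was survival, with treated animals benchmarked against vehicle controls as a simple ratio.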

[1] = dose: 100.0 mg/kg/injection, schedule: Q04DX003 (ip), vehicle: Klucel (hydroxypropylcellulose) (HPC)
[2] = dose: 100.0 mg/kg/injection, schedule: Q01DX001 (ip), vehicle: saline with Tween-80
[3] = dose: 200.0 mg/kg/injection, schedule: Q01DX001 (ip), vehicle: saline with Tween-80
[4] = dose: 100.0 mg/kg/injection, schedule: Q01DX009 (ip), vehicle: Klucel (hydroxypropylcellulose) (HPC)
[5] = dose: 200.0 mg/kg/injection, schedule: Q01DX009 (ip), vehicle: Klucel (hydroxypropylcellulose) (HPC)
[6] = dose: 100.0 mg/kg/injection, schedule: Q01DX009 (ip), vehicle: saline with Tween-80
[7] = dose: 200.0 mg/kg/injection, schedule: Q04DX003 (ip), vehicle: Klucel (hydroxypropylcellulose) (HPC)
[8] = dose: 400.0 mg/kg/injection, schedule: Q04DX003 (ip), vehicle: Klucel (hydroxypropylcellulose) (HPC)
[9] = dose: 100.0 mg/kg/injection, schedule: Q04DX003 (ip), vehicle: saline with Tween-80
[10] = dose: 100.0 mg/kg/injection, schedule: Q01DX001 (ip), vehicle: Klucel (hydroxypropylcellulose) (HPC)
[11] = dose: 200.0 mg/kg/injection, schedule: Q01DX001 (ip), vehicle: Klucel (hydroxypropylcellulose) (HPC)
[12] = dose: 400.0 mg/kg/injection, schedule: Q01DX001 (ip), vehicle: Klucel (hydroxypropylcellulose) (HPC)

Measured: T/C

O=Cc1c(Cl)n(-c2ccccc2)c2c(C=O)cccc12
inactive: dose: 25.0 mg/kg/injection, schedule: Q04DX003 (ip), vehicle: Klucel (hydroxypropylcellulose) (HPC) 97 % of control | dose: 50.0 mg/kg/injection, schedule: Q04DX003 (ip), vehicle: Klucel (hydroxypropylcellulose) (HPC) 100 % of control | [1] 97 % of control

Cc1cnc2nc(N)[nH]c(=O)c2c1
inactive: dose: 100.0 mg/kg/injection, schedule: Q04DX003 (ip), vehicle: saline sonified 98 % of control | dose: 200.0 mg/kg/injection, schedule: Q04DX003 (ip), vehicle: saline sonified 95 % of control | dose: 400.0 mg/kg/injection, schedule: Q04DX003 (ip), vehicle: saline sonified 95 % of control

C=CCc1cc(C)ccc1OC(=O)c1cc([N+](=O)[O-])cc([N+](=O)[O-])c1
inactive: dose: 100.0 mg/kg/injection, schedule: Q01DX001 (ip), vehicle: saline 102 % of control | dose: 200.0 mg/kg/injection, schedule: Q01DX001 (ip), vehicle: saline 98 % of control | dose: 400.0 mg/kg/injection, schedule: Q01DX001 (ip), vehicle: saline 98 % of control

CC(Br)CNC(=O)c1ccc([N+](=O)[O-])cc1 (stereo not given)
inactive: dose: 75.0 mg/kg/injection, schedule: Q01DX009 (ip), vehicle: Klucel (hydroxypropylcellulose) (HPC) 107 % of control | dose: 150.0 mg/kg/injection, schedule: Q01DX009 (ip), vehicle: Klucel (hydroxypropylcellulose) (HPC) 97 % of control | dose: 300.0 mg/kg/injection, schedule: Q01DX009 (ip), vehicle: Klucel (hydroxypropylcellulose) (HPC) 101 % of control

CCN1CC(C)(C)N(C(=O)c2ccccc2)CC1(C)C
inactive: dose: 5.0 mg/kg/injection, schedule: Q01DX001 (ip), vehicle: carboxymethylcellulose (CMC) 98 % of control | dose: 10.0 mg/kg/injection, schedule: Q01DX001 (ip), vehicle: carboxymethylcellulose (CMC) 106 % of control | dose: 20.0 mg/kg/injection, schedule: Q01DX001 (ip), vehicle: carboxymethylcellulose (CMC) 95 % of control | dose: 40.0 mg/kg/injection, schedule: Q01DX001 (ip), vehicle: carboxymethylcellulose (CMC) 109 % of control | dose: 80.0 mg/kg/injection, schedule: Q01DX001 (ip), vehicle: carboxymethylcellulose (CMC) 98 % of control

CC1=CC(=O)CC(c2ccc(N(C)C)cc2)C1 (stereo not given)
inactive: dose: 25.6 mg/kg/injection, schedule: Q04DX002 (ip), vehicle: saline with Tween-80 101 % of control | dose: 64.0 mg/kg/injection, schedule: Q04DX002 (ip), vehicle: saline with Tween-80 97 % of control

NC(=S)N/N=C/c1ccc[nH]1
inactive: [2] 93 % of control | [3] 98 % of control

O=C1N(Cc2ccccc2)C(=O)C(Cc2ccccc2)(Cc2ccccc2)C(=O)N1Cc1ccccc1
inactive: dose: 100.0 mg/kg/injection, schedule: Q01DX001 (ip), vehicle: carboxymethylcellulose (CMC) 101 % of control | dose: 200.0 mg/kg/injection, schedule: Q01DX001 (ip), vehicle: carboxymethylcellulose (CMC) 97 % of control | dose: 400.0 mg/kg/injection, schedule: Q01DX001 (ip), vehicle: carboxymethylcellulose (CMC) 95 % of control

CC12CC(C3(O)C(=O)Nc4ccccc43)C(=O)CC1CCC1C2CCC2(C)C(OC(=O)c3ccccc3)CCC12 (stereo not given)
inactive: dose: 50.0 mg/kg/injection, schedule: Q01DX009 (ip), vehicle: Klucel (hydroxypropylcellulose) (HPC) 93 % of control | [4] 101 % of control | [5] 101 % of control

CN(C)C(=S)[S][Sb]([c]1ccccc1)[c]1ccccc1
inactive: dose: 100.0 mg/kg/injection, schedule: Q01DX001 (ip), vehicle: other 96 % of control

FC1(F)SC2c3cccc4cccc(c34)C2C1(F)F (stereo not given)
inactive: [6] 102 % of control | dose: 200.0 mg/kg/injection, schedule: Q01DX009 (ip), vehicle: saline with Tween-80 104 % of control | dose: 400.0 mg/kg/injection, schedule: Q01DX009 (ip), vehicle: saline with Tween-80 96 % of control

O=C(O)C1C(C(=O)O)C2(c3ccccc3)C(=O)C1(c1ccccc1)C(c1ccccc1)=C2c1ccccc1 (stereo not given)
inactive: [2] 89 % of control | [3] 110 % of control | dose: 400.0 mg/kg/injection, schedule: Q01DX001 (ip), vehicle: saline with Tween-80 100 % of control

COc1ccc2c(c1)CN(S(=O)(=O)c1ccc(C)cc1)CCC2O (stereo not given)
inactive: [4] 96 % of control | [1] 96 % of control | [5] 116 % of control | [7] 114 % of control | dose: 400.0 mg/kg/injection, schedule: Q01DX009 (ip), vehicle: Klucel (hydroxypropylcellulose) (HPC) 98 % of control | [8] 96 % of control

CCCCCOC(=O)CN(CC(=O)OCCCCC)c1ccc(C=O)cc1
inactive: [9] 103 % of control | dose: 200.0 mg/kg/injection, schedule: Q04DX003 (ip), vehicle: saline with Tween-80 100 % of control | dose: 400.0 mg/kg/injection, schedule: Q04DX003 (ip), vehicle: saline with Tween-80 92 % of control

CN(C)c1ccc(/C=C(\C#N)c2nc3ccccc3[nH]2)cc1
inactive: [10] 96 % of control | [1] 91 % of control | [11] 99 % of control | [7] 94 % of control | [12] 96 % of control | [8] 93 % of control

O=C(O)C1CC/C=C\CCC1 (stereo not given)
inactive: dose: 100.0 mg/kg/injection, schedule: Q01DX009 (sc), vehicle: olive oil, sesame oil, peanut oil 99 % of control | dose: 100.0 mg/kg/injection, schedule: Q04DX003 (sc), vehicle: olive oil, sesame oil, peanut oil 109 % of control | dose: 200.0 mg/kg/injection, schedule: Q01DX009 (sc), vehicle: olive oil, sesame oil, peanut oil 89 % of control | dose: 200.0 mg/kg/injection, schedule: Q04DX003 (sc), vehicle: olive oil, sesame oil, peanut oil 106 % of control | dose: 400.0 mg/kg/injection, schedule: Q01DX009 (sc), vehicle: olive oil, sesame oil, peanut oil 88 % of control | dose: 400.0 mg/kg/injection, schedule: Q04DX003 (sc), vehicle: olive oil, sesame oil, peanut oil 97 % of control

Cc1ccc(C)c(CCN)c1
inactive: dose: 25.0 mg/kg/injection, schedule: Q01DX009 (ip), vehicle: saline with Tween-80 103 % of control | dose: 50.0 mg/kg/injection, schedule: Q01DX009 (ip), vehicle: saline with Tween-80 98 % of control | dose: 50.0 mg/kg/injection, schedule: Q04DX003 (ip), vehicle: saline with Tween-80 100 % of control | [6] 94 % of control | [9] 92 % of control

C/C=C/C[n+]1cccc2ccccc21
inactive: dose: 6.25 mg/kg/injection, schedule: Q01DX009 (ip), vehicle: saline 92 % of control | dose: 6.25 mg/kg/injection, schedule: Q04DX003 (ip), vehicle: saline 98 % of control | dose: 12.5 mg/kg/injection, schedule: Q01DX009 (ip), vehicle: saline 95 % of control | dose: 12.5 mg/kg/injection, schedule: Q04DX003 (ip), vehicle: saline 101 % of control | dose: 25.0 mg/kg/injection, schedule: Q01DX009 (ip), vehicle: saline 100 % of control | dose: 25.0 mg/kg/injection, schedule: Q04DX003 (ip), vehicle: saline 101 % of control

OCC(CO)=C1c2ccccc2-c2ccccc21
inactive: dose: 100.0 mg/kg/injection, schedule: Q## X003 (ip), vehicle: acetone 102 % of control | dose: 200.0 mg/kg/injection, schedule: Q## X003 (ip), vehicle: acetone 101 % of control | dose: 400.0 mg/kg/injection, schedule: Q## X003 (ip), vehicle: acetone 104 % of control

Cc1ccc(C(=O)c2ccn[nH]2)cc1
inactive: [10] 93 % of control | [1] 96 % of control | [11] 94 % of control | [7] 93 % of control | [12] 98 % of control | [8] 96 % of control
